Patent EP1285920A1, “C10 Ester sustituted taxanes as antitumor agents” (Florida State University Research Foundation, Inc., priority 2001, dated 2003)
Read-outs that look alike come from different tables or passages of the source.

Assays:
HCT116 = experiment: In Vitro cytotoxicity measured by the cell colony formation assay; format: cell-based, human; conditions: Homo sapiens, HCT-116; read-out: IN VITRO ID 50 HCT116
Method in brief: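 Four hundred cells per dish in McCoy's 5a medium with 10% FBS were allowed to attach for 5 h at 37 °C. They were then exposed to compound for 72 h at 37 °C, added as a 10× stock made fresh in medium. After HBSS rinsing and refeeding, colonies were counted after 7 days.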

HCT116 carcinoma = conditions: for Partial Response / Complete Response / Mean Score / Stable Disease: iv; for Complete Response / Mean Score / Stable Disease: 1440 h; for Survivors / Toxic Deaths: number of 5 mice, i.v. qd x 1 at MTD, Day 60; for Survivors: doses as in E3; for Toxic Deaths: mg/kg: Taxol 36 (split doses), 0503 72.6, 0536 49, 0663 159, 0670 123, 0687 159, 0706 108, 0908 159, 0947 76.9, 0951 72.6, 0983 72.6, 0999 49, 1003 49, 1011 108
Method in brief: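 Mice bearing HCT116 tumours received a single i.v. maximum tolerated dose per compound, formulated in 5% ethanol, 5% Cremophor, 90% isotonic saline. Study ended on Day 60; complete response meant no palpable tumour at study end.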

MX-1 carcinoma = conditions: for Partial Response / Complete Response / Mean Score / Stable Disease: iv; for Complete Response / Mean Score / Stable Disease: 1440 h; for Survivors / Toxic Deaths: number of 6 mice, i.v. qd x 1 at MTD, Day 60; for Survivors: doses as in E17; for Toxic Deaths: mg/kg: Taxol 36 (split dose), 0503 72.6, 0536 49, 0663 159, 0670 123, 0687 159, 0706 108, 0908 159, 0947 76.9, 0951 72.6, 0983 67.4, 0999 49, 1003 49, 1011 108
Method in brief: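 Mice dosed with a single i.v. bolus (qd x 1) at each compound's MTD, formulated in 5% ethanol, 5% Cremophor, 90% isotonic saline. Study ended Day 60; complete response = tumor not palpable at study end.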

DU145 prostate carcinoma = conditions: for Toxic Deaths / Survivors: number of 5 mice, Day 91; for Toxic Deaths: i.v. qd x 1 at estimated MTD (Taxol 24 mg/kg as two split doses); for Survivors: i.v. qd x 1 at estimated MTD (Taxol 24 mg/kg split)
Description: Dosing was initiated on Day 1. […] Treatment groups are detailed in Table 5.

A2780 ovarian carcinoma = test system: A2780 ovarian carcinoma
Method: Dosing was initiated on Day 1. […] Taxotere was given i.v. on a qd x 1 schedule at a dose of 70 mg/kg. […] The study was terminated on Day 60. Treatment groups are detailed in Table 7.

A375 melanoma = conditions: for Toxic Deaths / Survivors: number of mice, i.v. qd x 1 at estimated MTD (Taxol 24 mg/kg, Taxotere 70 mg/kg), 6 mice/group (Taxotere 7); for Survivors: Day 60; for mean group weight losses: A375, i.v. qd x 1
Method: Dosing was initiated on Day 1. […] Taxotere was given i.v. on a qd x 1 schedule at a dose of 70 mg/kg. […] The study was terminated on Day 60. Treatment groups are detailed in Table 9.

VM46 colon carcinoma = conditions: for response rate: VM46, i.v. qd x 1 at estimated MTD; for Toxic Deaths / Complete Response / Partial Response / Stable Disease / Survivors: number of mice; for Complete Response / Partial Response / Stable Disease / Survivors: Day 64
Method: Dosing was initiated on Day 1. […] Taxotere was given i.v. at a dose of 70 mg/kg on a qd x 1 schedule.

[1] = test system: Panc-1 pancreatic carcinoma; experiment: In vivo evaluation against Panc-1 human pancreatic carcinoma (Example 17); conditions: for Toxic Deaths / Complete Response / Partial Response / Stable Disease / Mean Score: i.v. qd x 1; for Complete Response / Partial Response / Stable Disease: Day 60; for Mean Score: tumor scoring system
Method: (§1) The dosing volume was 0.3 ml per 20 g mouse.
Female NCr-nude mice were implanted subcutaneously with 1 mm^3 Panc-1 pancreatic carcinoma fragments in the flank and sorted into treatment groups of six mice each. […] Dosing was initiated on Day 1. The antitumor compounds were given i.v. at an estimated maximum tolerated dose (MTD) appropriate for each agent on a qd x 1 schedule (single administration of compound). […] The vehicle was administered i.v. to control mice in Group 1 on the qd x 1 schedule. The study was terminated on Day 60.
(§2) The mean days of survival is the number of days after which a neoplasm reached a size of 1.5 g and the animal was euthanized. A complete response is obtained if the tumor shrinks to a size smaller than its size on Day 1 of the study.

[2] = test system: Panc-1 pancreatic carcinoma; conditions: for Mean Score: iv
Method: as §1
Female NCr-nude mice were implanted subcutaneously with 1 mm^3 Panc-1 pancreatic carcinoma fragments in the flank and sorted into treatment groups of six mice each. […] Dosing was initiated on Day 1. The antitumor compounds were given i.v. at an estimated maximum tolerated dose (MTD) appropriate for each agent on a qd x 1 schedule (single administration of compound). […] The vehicle was administered i.v. to control mice in Group 1 on the qd x 1 schedule.
as §2

[3] = i.v. qd x 1, mg/kg: Taxol 24, 0499 77, 0503 72.6, 0670 123.1, 0706 107.6, 0838 72.6, 0854 46.6, 0983 67.4, Taxotere 70, 6 mice/group
[4] = number of mice, mg/kg: Taxol 36, 0499 77, 0503 72.6, 0670 123.1, 0706 107.6, 0838 72.6, 0854 76.9, 6 mice/group
[5] = mg/kg: Taxol 36, 0499 77, 0503 72.6, 0670 123.1, 0706 107.6, 0838 72.6, 0854 76.9, 6 mice/group
[6] = number of mice, i.v. qd x 1, mg/kg: Taxol 24, 0854 46.6, 1011 107.6, 6 mice/group
[7] = number of mice, i.v. qd x 1, mg/kg: Taxol 24, 0854 46.6, 1011 107.6, 6 mice/group, Day 63
[8] = A2780, i.v. qd x 1, five mice per group
[9] = Panc-1 (Example 18), i.v. qd x 1, six mice per group

## CCC(=O)O[C@H]1C(=O)[C@@]2(C)[C@H]([C@H](OC(=O)c3ccccc3)[C@]3(O)C[C@H](OC(=O)[C@H](O)[C@@H](NC(=O)c4ccccc4)C4CC4)C(C)=C1C3(C)C)[C@]1(OC(C)=O)CO[C@@H]1C[C@@H]2O [Compound 0706]
HCT116
  IC50: < 1 nM
HCT116 carcinoma
  Partial Response: 4
  Complete Response: 1
  Mean Score: 9.2 ± 0.2
  Stable Disease: 0
  Survivors: 5
  Toxic Deaths: 0
MX-1 carcinoma
  Partial Response: 0
  Complete Response: 5
  Mean Score: 8.3 ± 1.7
  Stable Disease: 0
  Survivors: 5
  Toxic Deaths: 1
DU145 prostate carcinoma; DU145, i.v. qd x 1, five mice per group
  complete responses: 2
DU145 prostate carcinoma; iv
  total response rate: 20-50%
DU145 prostate carcinoma
  Toxic Deaths: 0
  Survivors: 3
A2780 ovarian carcinoma; iv, 72.6 mg/kg
  Mean Score: 3 ± 0
A2780 ovarian carcinoma; iv, 72.6 mg/kg, 1440 h
  Complete Response: 0
  MDS (n): 37.0 ± 4.1 (5) days
  Partial Respons: 0
  Stable Disease: 0
A2780 ovarian carcinoma; number of mice, i.v. qd x 1 at estimated MTD (Taxol 24 mg/kg, Taxotere 70 mg/kg, 0983 72.6 mg/kg), 5 mice/group (Taxotere 6)
  Toxic Deaths: 0
A2780 ovarian carcinoma; number of mice, i.v. qd x 1 at estimated MTD (Taxol 24 mg/kg, Taxotere 70 mg/kg, 0983 72.6 mg/kg), 5 mice/group (Taxotere 6), Day 60
  Survivors: 0
A375 melanoma
  Toxic Deaths: 1
  Survivors: 0
VM46 colon carcinoma
  response rate: 56%
VM46 colon carcinoma; mean days of survival until neoplasm reached 1.5 g, i.v. qd x 1, mg/kg: Taxol 24, 0499 77, 0503 72.6, 0670 123.1, 0706 107.6, 0838 72.6, 0854 46.6, 0983 67.4, Taxotere 70, 6 mice/group, terminated Day 64
  MDS (n): 48.6 ± 0.9 (3) days
VM46 colon carcinoma; [3]
  Toxic Deaths: 0
  Complete Response: 1
  Partial Response: 2
  Stable Disease: 0
  Survivors: 3
VM46 colon carcinoma; tumor scoring system, i.v. qd x 1, mg/kg: Taxol 24, 0499 77, 0503 72.6, 0670 123.1, 0706 107.6, 0838 72.6, 0854 46.6, 0983 67.4, Taxotere 70, 6 mice/group
  Mean Score: 6.2 ± 1.4
[1]; Panc-1 (Example 17), i.v. qd x 1 (compounds estimated MTD; Taxol 36 mg/kg split), days until tumor 1.5 g, ended Day 60
  MDS: 47 to 56 days
[1]; [4]
  Toxic Deaths: 0
  Complete Response: 0
  Partial Response: 3
  Stable Disease: 2
[1]; [5]
  Mean Score: 6.6 ± 1

## CC(=O)O[C@@]12CO[C@@H]1C[C@H](O)[C@@]1(C)C(=O)[C@H](OC(=O)C3CC3)C3=C(C)[C@@H](OC(=O)[C@H](O)[C@@H](NC(=O)OC(C)(C)C)c4cccs4)C[C@@](O)([C@@H](OC(=O)c4ccccc4)[C@H]21)C3(C)C [Compound 0854]
HCT116
  IC50: < 1 nM
DU145 prostate carcinoma
  Toxic Deaths: 5
  Survivors: 0
A375 melanoma
  mean group weight losses: 20 - 30%
  Toxic Deaths: 6
  Survivors: 0
VM46 colon carcinoma
  response rate: 16.7-40%
VM46 colon carcinoma; iv
  Mean Score: 4.7 ± 1.6
VM46 colon carcinoma; iv, 1536 h
  MDS (n): 52.9 ± 6.6 (2) days
VM46 colon carcinoma; mouse, in vivo, iv
  maximal mean weight loss: under 12%
VM46 colon carcinoma; [3]
  Toxic Deaths: 1
  Complete Response: 0
  Partial Response: 2
  Stable Disease: 1
  Survivors: 3
[2]
  Mean Score: 0 ± 0
[2]; [6]
  Toxic Deaths: 6
[2]; [7]
  Complete Response: 0
  Partial Response: 0
  Stable Disease: 0
[1]; Panc-1 (Example 17), six mice per group
  Toxic Deaths: six
[1]; [4]
  Toxic Deaths: 6
  Complete Response: 0
  Partial Response: 2
  Stable Disease: 0
[1]; [5]
  Mean Score: 0 ± 0

## CCCC(=O)O[C@H]1C(=O)[C@@]2(C)[C@H]([C@H](OC(=O)c3ccccc3)[C@]3(O)C[C@H](OC(=O)[C@H](O)[C@@H](NC(=O)OC(C)(C)C)c4ccsc4)C(C)=C1C3(C)C)[C@]1(OC(C)=O)CO[C@@H]1C[C@@H]2O [Compound 1011]
HCT116
  IC50: < 1 nM
HCT116 carcinoma
  Partial Response: 2
  Complete Response: 3
  Mean Score: 9.6 ± 0.2
  Stable Disease: 0
  Survivors: 5
  Toxic Deaths: 0
MX-1 carcinoma
  Partial Response: 0
  Complete Response: 6
  Mean Score: 10 ± 0
  Stable Disease: 0
  Survivors: 6
  Toxic Deaths: 0
DU145 prostate carcinoma; DU145, i.v. qd x 1 at the administered dose, five animals
  mortality rate: ≥ 40%
DU145 prostate carcinoma
  Toxic Deaths: 3
  Survivors: 0
A2780 ovarian carcinoma; A2780, i.v. qd x 1, Day 5
  maximal mean group weight loss: 11.3%
A2780 ovarian carcinoma; [8]
  Complete Response: 1
  Toxic Deaths: no toxic deaths
  partial responses: 3
A2780 ovarian carcinoma; mouse, in vivo, iv
  tolerability / toxicity: well-tolerated
A375 melanoma
  mean group weight losses: 20 - 30%
  Toxic Deaths: 3
  Survivors: 0
[2]; [9]
  partial responses: three
  toxic deaths / toxic lethalities: three
[2]; Panc-1 (Example 18), i.v. qd x 1 at estimated MTD
  overall response rate: 100%
[2]
  Mean Score: 4 ± 1.8
[2]; [6]
  Toxic Deaths: 3
[2]; [7]
  Complete Response: 0
  Partial Response: 3
  Stable Disease: 0
  Survivors: 3
